Target: Bcl-2 (Homo sapiens (Human), UniProt P10415)
Experiment: Time Resolved-Fluorescence Resonance Energy Transfer (TR-FRET) Bcl-2 binding assay
Settings: not given

Bcl-2, sequence (P10415 whole entry): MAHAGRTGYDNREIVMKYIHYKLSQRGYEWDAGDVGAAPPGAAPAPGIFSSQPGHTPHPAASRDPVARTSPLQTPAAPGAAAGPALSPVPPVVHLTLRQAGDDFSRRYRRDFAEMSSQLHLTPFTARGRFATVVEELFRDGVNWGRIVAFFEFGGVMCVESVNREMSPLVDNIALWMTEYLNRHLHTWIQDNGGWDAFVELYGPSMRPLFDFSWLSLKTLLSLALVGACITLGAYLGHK

With `CC1(C)CCC(CN2CCN(c3ccc(C(=O)NS(=O)(=O)c4ccc(OC[C@H]5CC[C@@H](N6CCOCC6)C5)c([N+](=O)[O-])c4)c(Oc4cnc5[nH]ccc5c4)c3)CC2)=C(c2ccc(Cl)cc2)C1` (relative stereo) [Example 188] the Ki was < 0.01 nM.

Same assay, conditions: GST-Bcl-2 1 nM, F-Bak peptide probe 100 nM, Tb-anti-GST 1 nM; < means below limit of detection; read-out: TR-FRET Bcl-2 Binding Ki

For `CC1(C)CCC(CN2CCN(c3ccc(C(=O)NS(=O)(=O)c4ccc(OC[C@H]5CC[C@H](O)CC5)c([N+](=O)[O-])c4)c(Oc4cnc5[nH]ccc5c4)c3)CC2)=C(c2ccc(Cl)cc2)C1` [Example 196, Trans-4-(4-{[2-(4-chlorophenyl)-4,4-dimethylcyclohex-1-en-1-yl]methyl}piperazin-1-yl)-N-({4-[(4-hydroxycyclohexyl)methoxy]-3-nitrophenyl}sulfonyl)-2-(1H-pyrrolo[2,3-b]pyridin-5-yloxy)benzamide], the Ki was < 0.01 nM.

Test system: RS4;11 cells
Experiment: RS4;11 cell viability assay (CellTiter Glo);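 note: acute lymphoblastic leukemia line RS4,11, EC50 derived from percentage of viable cells after treatment relative to untreated controls, cell killing taken as a measure of Bcl-2 inhibition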
Type: cell-based, human
Settings: 50,000 cells per well, 10% human serum, 48 hours; read-out: RS4; 11 EC50 Values
Protocol: The acute lymphoblastic leukemia (ALL) cell line RS4;11 was used as the primary human cell line to assess the cellular activity of Bcl-2 selective agents in vitro and their efficacy in vivo.
Cell cytotoxicity EC50 values were assessed using CellTiter Glo (Promega) according to the manufacturer's recommendations. The EC50 values were determined as a percentage of viable cells following treatment compared to the untreated control cells.

For `CC1(C)CCC(CN2CCN(c3ccc(C(=O)NS(=O)(=O)c4cnc(OC[C@]5(F)CC[C@@](C)(O)CC5)c(Cl)c4)c(Oc4cnc5[nH]ccc5c4)c3)CC2)=C(c2ccc(Cl)cc2)C1` [Example 355, N-({5-chloro-6-[(trans-1-fluoro-4-hydroxy-4-methylcyclohexyl)methoxy]pyridin-3-yl}sulfonyl)-4-(4-{[2-(4-chlorophenyl)-4,4-dimethylcyclohex-1-en-1-yl]methyl}piperazin-1-yl)-2-(1H-pyrrolo[2,3-b]pyridin-5-yloxy)benzamide], the EC50 was 18.8 nM.

Same assay, conditions: Homo sapiens, RS4-11, 48 h, 50,000 cells per well, 10% human serum, 48 hours; read-out: RS4; 11 EC50 Values

First: CC1(C)CCC(CN2CCN(c3ccc(C(=O)NS(=O)(=O)c4ccc(OC[C@H]5CC[C@@H](N6CCOCC6)C5)c([N+](=O)[O-])c4)c(Oc4cnc5[nH]ccc5c4)c3)CC2)=C(c2ccc(Cl)cc2)C1 (relative stereo) [Example 188]
Second: CC1(C)CCC(CN2CCN(c3ccc(C(=O)NS(=O)(=O)c4ccc(OCC5CN(C6CC6)CCO5)c([N+](=O)[O-])c4)c(Oc4cnc5[nH]ccc5c4)c3)CC2)=C(c2ccc(Cl)cc2)C1 (stereo not shown) [Example 354, 4-(4-{[2-(4-chlorophenyl)-4,4-dimethylcyclohex-1-en-1-yl]methyl}piperazin-1-yl)-N-({4-[(4-cyclopropylmorpholin-2-yl)methoxy]-3-nitrophenyl}sulfonyl)-2-(1H-pyrrolo[2,3-b]pyridin-5-yloxy)benzamide]
The EC50 of the first is 3.2-fold lower: 16.4 nM for the first, 53.2 nM for the second. The first is the more potent here.

Compared with `CC1(C)CCC(CN2CCN(c3ccc(C(=O)NS(=O)(=O)c4ccc(NC5CCC(N6CCC(F)(F)C6)CC5)c([N+](=O)[O-])c4)c(Oc4cnc5[nH]ccc5c4)c3)CC2)=C(c2ccc(Cl)cc2)C1` (stereo not shown) [Example 346, 4-(4-{[2-(4-chlorophenyl)-4,4-dimethylcyclohex-1-en-1-yl]methyl}piperazin-1-yl)-N-[(4-{[4-(3,3-difluoropyrrolidin-1-yl)cyclohexyl]amino}-3-nitrophenyl)sulfonyl]-2-(1H-pyrrolo[2,3-b]pyridin-5-yloxy)benzamide], `CC1(C)CCC(CN2CCN(c3ccc(C(=O)NS(=O)(=O)c4ccc(NC5CCC(NC6CC6(F)F)CC5)c([N+](=O)[O-])c4)c(Oc4cnc5[nH]ccc5c4)c3)CC2)=C(c2ccc(Cl)cc2)C1` (stereo not shown) [Example 349, 4-(4-{[2-(4-chlorophenyl)-4,4-dimethylcyclohex-1-en-1-yl]methyl}piperazin-1-yl)-N-{[4-({4-[(2,2-difluorocyclopropyl)amino]cyclohexyl}amino)-3-nitrophenyl]sulfonyl}-2-(1H-pyrrolo[2,3-b]pyridin-5-yloxy)benzamide] is 8.2-fold lower in EC50: 190 nM for the first, 23.1 nM for the second.

`CC1(C)CCC(CN2CCN(c3ccc(C(=O)NS(=O)(=O)c4ccc(OCC5CCC6(CC5)COC6)c([N+](=O)[O-])c4)c(Oc4cnc5[nH]ccc5c4)c3)CC2)=C(c2ccc(Cl)cc2)C1` [Example 351, 4-(4-{[2-(4-chlorophenyl)-4,4-dimethylcyclohex-1-en-1-yl]methyl}piperazin-1-yl)-N-{[3-nitro-4-(2-oxaspiro[3.5]non-7-ylmethoxy)phenyl]sulfonyl}-2-(1H-pyrrolo[2,3-b]pyridin-5-yloxy)benzamide] and `CC1(C)CCC(CN2CCN(c3ccc(C(=O)NS(=O)(=O)c4ccc(NCC5CCC6(CC5)COC6)c([N+](=O)[O-])c4)c(Oc4cnc5[nH]ccc5c4)c3)CC2)=C(c2ccc(Cl)cc2)C1` [Example 365, 4-(4-{[2-(4-chlorophenyl)-4,4-dimethylcyclohex-1-en-1-yl]methyl}piperazin-1-yl)-N-({3-nitro-4-[(2-oxaspiro[3.5]non-7-ylmethyl)amino]phenyl}sulfonyl)-2-(1H-pyrrolo[2,3-b]pyridin-5-yloxy)benzamide] are within 1.5-fold of each other in EC50: 2.06 nM for the first, 3.02 nM for the second.

`O=C(NS(=O)(=O)c1ccc(NCC2CCOCC2)c([N+](=O)[O-])c1)c1ccc(N2CCN(CC3=C(c4ccc(Cl)cc4)CCC(CF)(CF)C3)CC2)cc1Oc1cnc2[nH]ccc2c1` [Example 353, 4-(4-{[2-(4-chlorophenyl)-5,5-bis(fluoromethyl)cyclohex-1-en-1-yl]methyl}piperazin-1-yl)-N-({3-nitro-4-[(tetrahydro-2H-pyran-4-ylmethyl)amino]phenyl}sulfonyl)-2-(1H-pyrrolo[2,3-b]pyridin-5-yloxy)benzamide] and `COC1(C)CCC(c2ccc(Cl)cc2)=C(CN2CCN(c3ccc(C(=O)NS(=O)(=O)c4ccc(NCC5CCOCC5)c([N+](=O)[O-])c4)c(Oc4cnc5[nH]ccc5c4)c3)CC2)C1` (stereo not shown) [Example 378, 4-(4-{[2-(4-chlorophenyl)-5-methoxy-5-methylcyclohex-1-en-1-yl]methyl}piperazin-1-yl)-N-({3-nitro-4-[(tetrahydro-2H-pyran-4-ylmethyl)amino]phenyl}sulfonyl)-2-(1H-pyrrolo[2,3-b]pyridin-5-yloxy)benzamide] are within 1.5-fold of each other in EC50: 5.05 nM for the first, 6.76 nM for the second.

Going from `CC1(C)CCC(CN2CCN(c3ccc(C(=O)NS(=O)(=O)c4ccc(OCC5(F)CCN(C6COC6)CC5)c(C#N)c4)c(Oc4cnc5[nH]ccc5c4)c3)CC2)=C(c2ccc(Cl)cc2)C1` [Example 357, 4-(4-{[2-(4-chlorophenyl)-4,4-dimethylcyclohex-1-en-1-yl]methyl}piperazin-1-yl)-N-[(3-cyano-4-{[4-fluoro-1-(oxetan-3-yl)piperidin-4-yl]methoxy}phenyl)sulfonyl]-2-(1H-pyrrolo[2,3-b]pyridin-5-yloxy)benzamide] to `CC1(C)CCC(CN2CCN(c3ccc(C(=O)NS(=O)(=O)c4ccc(OCC5(F)CCC(N(CCC#N)C6CC6)CC5)c([N+](=O)[O-])c4)c(Oc4cnc5[nH]ccc5c4)c3)CC2)=C(c2ccc(Cl)cc2)C1` (stereo not shown) [Example 363, 4-(4-{[2-(4-chlorophenyl)-4,4-dimethylcyclohex-1-en-1-yl]methyl}piperazin-1-yl)-N-{[4-({4-[(2-cyanoethyl)(cyclopropyl)amino]-1-fluorocyclohexyl}methoxy)-3-nitrophenyl]sulfonyl}-2-(1H-pyrrolo[2,3-b]pyridin-5-yloxy)benzamide], the EC50 rises from 13.2 nM to 26.4 nM (2-fold).

Going from `COCC1(C)CCC(c2ccc(Cl)cc2)=C(CN2CCN(c3ccc(C(=O)NS(=O)(=O)c4ccc(NCC5CCOCC5)c([N+](=O)[O-])c4)c(Oc4cnc5[nH]ccc5c4)c3)CC2)C1` (stereo not shown) [Example 360, 4-(4-{[2-(4-chlorophenyl)-5-(methoxymethyl)-5-methylcyclohex-1-en-1-yl]methyl}piperazin-1-yl)-N-({3-nitro-4-[(tetrahydro-2H-pyran-4-ylmethyl)amino]phenyl}sulfonyl)-2-(1H-pyrrolo[2,3-b]pyridin-5-yloxy)benzamide] to `COCC1CCC(CNc2ccc(S(=O)(=O)NC(=O)c3ccc(N4CCN(CC5=C(c6ccc(Cl)cc6)CC(C)(C)CC5)CC4)cc3Oc3cnc4[nH]ccc4c3)cc2[N+](=O)[O-])CC1` (stereo not shown) [Example 374, 4-(4-{[2-(4-chlorophenyl)-4,4-dimethylcyclohex-1-en-1-yl]methyl}piperazin-1-yl)-N-{[4-({[4-(methoxymethyl)cyclohexyl]methyl}amino)-3-nitrophenyl]sulfonyl}-2-(1H-pyrrolo[2,3-b]pyridin-5-yloxy)benzamide], the EC50 rises from 9.9 nM to 15.5 nM (1.6-fold). The first is the more potent here.

Going from `CC1(C)CCC(CN2CCN(c3ccc(C(=O)NS(=O)(=O)c4ccc(NC[C@H]5CN(C6COC6)CCO5)c([N+](=O)[O-])c4)c(Oc4cnc5[nH]ccc5c4)c3)CC2)=C(c2ccc(Cl)cc2)C1` [Example 361, 4-(4-{[2-(4-chlorophenyl)-4,4-dimethylcyclohex-1-en-1-yl]methyl}piperazin-1-yl)-N-{[3-nitro-4-({[(2S)-4-(oxetan-3-yl)morpholin-2-yl]methyl}amino)phenyl]sulfonyl}-2-(1H-pyrrolo[2,3-b]pyridin-5-yloxy)benzamide] to `CC1(C)CCC(CN2CCN(c3ccc(C(=O)NS(=O)(=O)c4ccc(NCC5CCC(C)(C#N)CC5)c([N+](=O)[O-])c4)c(Oc4cnc5[nH]ccc5c4)c3)CC2)=C(c2ccc(Cl)cc2)C1` (stereo not shown) [Example 366, 4-(4-{[2-(4-chlorophenyl)-4,4-dimethylcyclohex-1-en-1-yl]methyl}piperazin-1-yl)-N-[(4-{[(4-cyano-4-methylcyclohexyl)methyl]amino}-3-nitrophenyl)sulfonyl]-2-(1H-pyrrolo[2,3-b]pyridin-5-yloxy)benzamide], the EC50 rises from 0.538 nM to 16.5 nM (31-fold). The first is the more potent here.

Going from `CC1(C)CCC(CN2CCN(c3ccc(C(=O)NS(=O)(=O)c4cnc(NCC5CCOCC5)c([N+](=O)[O-])c4)c(Oc4cnc5[nH]ccc5c4)c3)CC2)=C(c2ccc(Cl)cc2)C1` [Example 364, 4-(4-{[2-(4-chlorophenyl)-4,4-dimethylcyclohex-1-en-1-yl]methyl}piperazin-1-yl)-N-({5-nitro-6-[(tetrahydro-2H-pyran-4-ylmethyl)amino]pyridin-3-yl}sulfonyl)-2-(1H-pyrrolo[2,3-b]pyridin-5-yloxy)benzamide] to `CC1(C)CCC(CN2CCN(c3ccc(C(=O)NS(=O)(=O)c4cnc(OCC5CCN(c6nccs6)CC5)c(Cl)c4)c(Oc4cnc5[nH]ccc5c4)c3)CC2)=C(c2ccc(Cl)cc2)C1` [Example 375, 4-(4-{[2-(4-chlorophenyl)-4,4-dimethylcyclohex-1-en-1-yl]methyl}piperazin-1-yl)-N-[(5-chloro-6-{[1-(1,3-thiazol-2-yl)piperidin-4-yl]methoxy}pyridin-3-yl)sulfonyl]-2-(1H-pyrrolo[2,3-b]pyridin-5-yloxy)benzamide], the EC50 rises from 11.2 nM to 560 nM (50-fold).

Source: patent US20240043404A1 (AbbVie Inc., priority 2009, published 2024)
